Experimental findings from US8153809B2, “Dihydropyridone ureas as P2X7 modulators” (Roche Palo Alto LLC, priority 2008, dated 2012) are described below.

In this assay the target is T1, P2X7 (UniProt Q99572).
T1 sequence (Q99572 1-595): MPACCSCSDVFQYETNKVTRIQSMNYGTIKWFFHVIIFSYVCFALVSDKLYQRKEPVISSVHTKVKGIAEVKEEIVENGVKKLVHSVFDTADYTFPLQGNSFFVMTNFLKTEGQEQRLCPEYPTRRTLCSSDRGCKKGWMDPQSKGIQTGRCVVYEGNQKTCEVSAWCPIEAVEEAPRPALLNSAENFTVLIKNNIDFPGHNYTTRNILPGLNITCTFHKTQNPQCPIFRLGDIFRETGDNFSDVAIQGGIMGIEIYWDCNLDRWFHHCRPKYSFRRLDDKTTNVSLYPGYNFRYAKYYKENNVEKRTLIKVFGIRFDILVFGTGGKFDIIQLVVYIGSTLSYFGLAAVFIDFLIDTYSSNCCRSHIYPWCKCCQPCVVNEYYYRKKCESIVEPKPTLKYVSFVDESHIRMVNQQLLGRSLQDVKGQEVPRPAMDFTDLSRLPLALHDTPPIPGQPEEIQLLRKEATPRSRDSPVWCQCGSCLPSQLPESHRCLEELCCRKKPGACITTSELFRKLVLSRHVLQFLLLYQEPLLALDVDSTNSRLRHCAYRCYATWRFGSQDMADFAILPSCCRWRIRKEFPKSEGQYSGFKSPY
Nature of the assay: pIC50 values for P2X7 (Table 1). It is filed as cell-based. How it is done: Intracellular Calcium Flux (FLIPR) Assay
Compound and Reagent Preparation
Stock solutions of compounds were prepared from powders as a 10 mM DMSO stock solution. These solutions were stored at RT during the two week period of these experiments to prevent freeze-thaw of the DMSO stocks. The DMSO stocks were added to the appropriate assay buffer at a concentration of 10 μM, and then diluted serially to the final concentrations that were tested. […] The aqueous solutions of compounds as well as ATP (Sigma A7699) and BzATP (Sigma B6396) were prepared fresh for each day of experiment.
1321N1 cells stably expressing the full length human P2X7 gene (1321N1-hP2X7) and HEK293 cells stably expressing the full length rat P2X7 gene (HEK293-rP2X7) were obtained from the Roche Cell Culture Facility. 1321N1-hP2X7 cells were grown in Dulbecco's Modified Eagle's Medium (DMEM) high glucose supplemented with 10% FBS and 250 μg/mL G418. HEK293-rP2X7 cells were grown in DMEM/F-12 supplemented with 10% FBS, 1 mM CaCl2, 2 mM MgCl2, 2 mM L-Glutamine and 500 μg/ml G418. Cells were split such that they never became >70% confluent.
Intracellular Calcium Flux (FLIPR)
On the day prior to the experiment, 1321N1-hP2X7 or HEK293-rP2X7 cells were released into suspension with calcium-free PBS+Versene and washed by centrifugation with calcium-free PBS to remove the Versene.
On the day of the experiment, plates were washed with FLIPR buffer (calcium- and magnesium-free Hank's Balanced Salt Solution (HBSS) supplemented with 10 mM Hepes, 2.5 mM probenecid and 2 mM calcium chloride) using a BIO-TEK 96 channel plate washer and incubated with […] fluo-3 dye at 37° C. for one hr. The dye was then removed by plate washing and the cells were allowed to equilibrate for 20 min at room temperature with antagonist or vehicle (FLIPR buffer). Agonist (100 μM BzATP final concentration for hP2X7; 5 μM BzATP final concentration or rP2X7) was added online with the FLIPR and fluorescence measurements made at 1 sec intervals for 60 sec followed by 3 sec intervals for a further 4 min (5 min total). A final addition of 5 μM ionomycin was made and the maximal BzATP-evoked fluorescence normalized to the maximal ionomycin-evoked fluorescence.
The term pIC50 denotes the IC50 on a negative log10 scale, so that one unit is a factor of ten. The low end stands for a large IC50, the high end for a small IC50. Molecule `COC(=O)COc1cc(N(CC(=O)OC)C(=O)N2C=CC(=O)C[C@H]2c2ccc(F)cc2)c(Br)cc1Cl` [Compound 31, (4-Bromo-2-chloro-5-{[(S)-2-(4-fluoro-phenyl)-4-oxo-3,4-dihydro-2H-pyridine-1-carbonyl]-methoxycarbonylmethyl-amino}-phenoxy)-acetic acid methyl ester] returned a pIC50 of 5.27.

As for `COc1ccc(Br)c(NC(=O)N2C=CC(=O)C[C@H]2c2ccc(F)cc2)n1` [Compound 21, (S)-2-(4-Fluoro-phenyl)-4-oxo-3,4-dihydro-2H-pyridine-1-carboxylic acid (3-bromo-6-methoxy-pyridin-2-yl)-amide], the pIC50 turned out to be 6.32.

As for `Cn1cc2cc(NC(=O)N3C=CC(=O)C[C@H]3c3ccc(F)cc3)ccc2n1` [Compound 148, (S)-2-(4-Fluoro-phenyl)-4-oxo-3,4-dihydro-2H-pyridine-1-carboxylic acid (2-methyl-2H-indazol-5-yl)-amide], the pIC50 was found to be 6.87.

For `O=C1C=CN(C(=O)Nc2cccc3ncccc23)[C@H](c2ccc(F)cc2)C1` [Compound 154, (S)-2-(4-Fluoro-phenyl)-4-oxo-3,4-dihydro-2H-pyridine-1-carboxylic acid quinolin-5-ylamide], the pIC50 turned out to be 8.64.

`O=C1C=CN(C(=O)Nc2ccc3cc[nH]c3c2)C(c2ccc(F)cc2)C1` (stereo not shown) [Compound 90, 2-(4-Fluoro-phenyl)-4-oxo-3,4-dihydro-2H-pyridine-1-carboxylic acid (1H-indol-6-yl)-amide] yielded a pIC50 of 6.615.

Regarding `Cc1cc(Cl)c(CNC(=O)OC(C)(C)C)cc1NC(=O)N1C=CC(=O)C[C@H]1c1ccc(F)cc1` [Compound 122, (2-Chloro-5-{[(S)-2-(4-fluoro-phenyl)-4-oxo-3,4-dihydro-2H-pyridine-1-carbonyl]-amino}-4-methyl-benzyl)-carbamic acid tert-butyl ester], the pIC50 came out at 5.995.

As for `COc1cccc(NC(=O)N2C=CC(=O)CC2c2ccc(F)cc2)c1` (stereo not shown) [Compound 67, 2-(4-Fluoro-phenyl)-4-oxo-3,4-dihydro-2H-pyridine-1-carboxylic acid (3-methoxy-phenyl)-amide], the pIC50 was found to be 6.31.

The molecule `COc1cc(NC(=O)N2C=CC(=O)C[C@H]2c2cccc(F)c2)c(Br)cc1C` [Compound 29, (S)-2-(3-Fluoro-phenyl)-4-oxo-3,4-dihydro-2H-pyridine-1-carboxylic acid (2-bromo-5-methoxy-4-methyl-phenyl)-amide] came in with a pIC50 of 7.93.

Take `Cc1cc(F)c(NC(=O)N2C=CC(=O)C[C@H]2c2cccc(F)c2)cc1OCCO` [Compound 58, (S)-2-(3-Fluoro-phenyl)-4-oxo-3,4-dihydro-2H-pyridine-1-carboxylic acid [2-fluoro-5-(2-hydroxy-ethoxy)-4-methyl-phenyl]-amide]: the pIC50 is 6.43.

The molecule `COc1cc(NC(=O)N2C=CC(=O)CC2c2ccc(F)cc2)cc(OC)c1OC` (stereo not shown) [Compound 80, 2-(4-Fluoro-phenyl)-4-oxo-3,4-dihydro-2H-pyridine-1-carboxylic acid (3,4,5-trimethoxy-phenyl)-amide] displayed a pIC50 of 5.

As to `Cc1ccc(NC(=O)N2C=CC(=O)C[C@H]2c2ccc(F)cc2)c(C)c1` [Compound 103, (S)-2-(4-Fluoro-phenyl)-4-oxo-3,4-dihydro-2H-pyridine-1-carboxylic acid (2,4-dimethyl-phenyl)-amide], the negative logarithm of the IC50 (pIC50) is listed as 7.415.

`O=C1C=CN(C(=O)Nc2ccc(OC(F)(F)F)cc2Br)[C@H](c2ccc(F)cc2)C1` [Compound 119] gave a pIC50 of 6.175.

Turning to `C[C@H](O)c1cc(NC(=O)N2C=CC(=O)C[C@H]2c2ccc(F)cc2)c(Br)cc1Cl` [Compound 83, (S)-2-(4-Fluoro-phenyl)-4-oxo-3,4-dihydro-2H-pyridine-1-carboxylic acid [2-bromo-4-chloro-5-((S)-1-hydroxy-ethyl)-phenyl]-amide], the pIC50 amounted to 7.56.
